Several values for one entry are separate records, joined by “and”; a condition that tells them apart may be missing. Equal entries are not always repeated. Where two headings read alike, the source gives them in different places.
Columns and labels:
[1] = tested on: L. donovani axenic amastigotes; experiment: In vitro anti-leishmania activity (IC50 vs. L. donovani axenic amastigotes); assay type: cell-based; conditions: for selectivity for axenic amastigotes over J774 macrophages (fold more active against the parasites compared to the mammalian host cells): L. donovani vs. J774 macrophages; for IC50: Leishmania donovani
Trypanosoma cruzi = experiment: Anti-protozoan data: T. cruzi IC50; assay type: cell-based; conditions: read-out: T. cruzi IC50
Aspergillus fumigatus = experiment: Anti-fungal data: Aspergillus fumigatus; assay type: cell-based; conditions: for MIC: strain DUMC 168.95, read-out: Aspergillus. Fumigatus (DUMC 168.95) MIC100
DNA = DNA binding ΔTm; conditions: Tables VI(a), VI(c)
Plasmodium falciparum = experiment: Anti-protozoan data: P. falcip. IC50; assay type: cell-based; conditions: read-out: P. falcip. IC50
Cryptococcus neoformans = experiment: Anti-fungal data: Cryptococcus neoformans; assay type: cell-based; conditions: for MFC / MIC80: strain H99; for MIC: strain H99, read-out: Cryptococcus neoformans (H99) MIC100
Candida albicans = experiment: Anti-fungal data: Candida albicans; assay type: cell-based; conditions: for MFC / MIC80: strain A39; for MIC: strain A39, read-out: Candida albicans (A39) MIC100
J774 macrophages = experiment: Toxicity against J774 macrophages (IC50); assay type: cell-based; conditions: Mus musculus, Tables I-III, V
[2] = tested on: Trypanosoma brucei rhodesiense; experiment: Anti-protozoan data: T.b.r. IC50; assay type: cell-based; conditions: read-out: T.b.r. IC50
[3] = tested on: Mycobacterium tuberculosis; experiment: Compounds tested against Mycobacterium tuberculosis (MIC90); assay type: cell-based; conditions: read-out: M. tb. MIC90
[4] = Tables VI(a), VI(c), read-out: Leishmania donovani IC50
[5] = axenic amastigotes, Tables I-V, read-out: IC50 vs. L. donovani

Row | Structure (SMILES) | IC50 (in vitro) [nM] | IC50 [1, 4] [nM] | IC50 [1, 5] [nM] | IC50 (Trypanosoma cruzi; Tables VI(a), VI(c)) [nM] | MIC80 (Aspergillus fumigatus; strain DUMC 168.95) [µg/mL] | MIC (Aspergillus fumigatus) [µg/mL] | IC50 (Plasmodium falciparum; Tables VI(a), VI(c)) [nM] | MFC (Candida albicans) [µg/mL] | MIC80 (Candida albicans) [µg/mL] | MIC (Candida albicans) [µg/mL] | IC50 (J774 macrophages) [nM] | IC50 ([2]; Tables VI(a), VI(c)) [nM] | MIC90 [3] | melting point [°C] | also measured
1 | Cl.Cl.N=C(N)c1ccc2oc(CCc3cc4cc(C(=N)N)ccc4o3)cc2c1 [Compound 8, 2-(2-(5-Amidinobenzofuran-2-yl)ethyl)benzofuran-5-carboxamidine dihydrochloride] | 21500 | 1060 ± 180 | 1060 ± 180 | 12300 | > 100 | > 100 | 2.5 | 100 | 100 | 100 | 15000 ± 1000 | 7.9 | 5.15 µg/mL and 11.6 µM | – | selectivity for axenic amastigotes over J774 macrophages (fold more active against the parasites compared to the mammalian host cells) [1]: 14 fold; DNA binding Δ Tm (DNA): 6.1; MFC (Cryptococcus neoformans): 100 µg/mL; MIC80 (Cryptococcus neoformans): 100 µg/mL; MIC (Cryptococcus neoformans): 100 µg/mL
2 | Cl.Cl.c1cc(OCCCOc2ccc(C3=NCCN3)cc2)cc(-c2cc3cc(C4=NCCN4)ccc3o2)c1 [Compound 34, 2-(2-(3-(3-(4-(4,5-Dihydro-1H-imidazol-2-yl)phenoxy)propoxy)phenyl)benzofuran-5-yl) -4,5-dihydro-1H-imidazole dihydrochloride] | 6520 | 5930 ± 40 | 5930 ± 40 | – | – | – | 108 | – | – | – | 7100 ± 800 | 1170 | – | 193 to 197 | –
3 | Cl.Cl.N=C(N)c1ccc(OCCCCOc2cccc(-c3cc4cc(C(=N)N)ccc4o3)c2)cc1 [Compound 35, 2-(3-(4-(4-Carbamimidoylphenoxy)butoxy)phenyl)benzofuran-5-carboxamidine dihydrochloride] | 8060 | 4450 ± 1930 | 4450 ± 1930 | – | – | – | 75.5 | – | – | – | 9600 ± 1500 | 779 | – | 284 to 286 | –
4 | Cl.Cl.N=C(N)c1ccc(OCCCOc2ccc(-c3cc4cc(C(=N)N)ccc4o3)cc2)cc1 [Compound 44, 2-(4-(3-(4-Carbamimidoylphenoxy)propoxy)phenyl)benzofuran-5-carboxamidine dihydrochloride] | 7320 | – | 780 ± 210 | – | 10 | > 100 | – | 10 | ≤ 1 | ≤ 1 | 2700 ± 300 | – | 0.45 µg/mL and 0.86 µM | 287 to 289 | IC50 (Trypanosoma cruzi): 16900 nM; DNA binding Δ Tm (DNA): 18.7; IC50 (Plasmodium falciparum): 41.4 nM; IC50 [2]: 450 nM
5 | Cl.Cl.N=C(N)c1ccc(OCCCCCCOc2ccc(-c3cc4cc(C(=N)N)ccc4o3)cc2)cc1 [Compound 53, 2-(4-(6-(4-Carbamimidoylphenoxy)hexyloxy)phenyl)benzofuran-5-carboxamidine dihydrochloride] | 3290 | 650 ± 170 | 650 ± 170 | 6210 | 12.5 | > 100 | 263 | 3.12 | 1.56 | 3.12 | 600 ± 70 | 368 | 3.74 µg/mL and 6.84 µM | 310 to 311 | MFC (Cryptococcus neoformans): 6.25 µg/mL; MIC80 (Cryptococcus neoformans): 1.56 µg/mL; MIC (Cryptococcus neoformans): 3.12 µg/mL
6 | Cl.Cl.N=C(N)c1ccc(OCCCCOc2cccc(-c3cc4ccc(C(=N)N)cc4o3)c2)cc1 [Compound 59, 2-(3-(4-(4-Carbamimidoylphenoxy)butoxy)phenyl)benzofuran-6-carboxamidine dihydrochloride] | 7570 | 5930 ± 240 | 5930 ± 240 | – | – | – | 321 | – | – | – | 11000 ± 2000 | 1330 | – | 278 to 280 | –
7 | Cl.Cl.N=C(N)c1ccc(OCCCCCOc2cccc(-c3cc4ccc(C(=N)N)cc4o3)c2)cc1 [Compound 62, 2-(3-(5-(4-Carbamimidoylphenoxy)pentyloxy)phenyl)benzofuran-6-carboxamidine dihydrochloride] | 4120 | 5750 ± 60 | 5750 ± 60 | 8560 | 1.56 | 3.12 | 282 | 1.56 | 0.39 | 0.39 | 5600 ± 300 | 531 | 0.65 µg/mL and 1.15 µM | 178 to 182 | MFC (Aspergillus fumigatus; strain DUMC 168.95): > 100 µg/mL; MFC (Cryptococcus neoformans): 0.78 µg/mL; MIC80 (Cryptococcus neoformans): 0.39 µg/mL; MIC (Cryptococcus neoformans): 0.39 µg/mL
8 | CC(C)NC(=N)c1ccc(OCCCOc2ccc(-c3cc4ccc(C(=N)NC(C)C)cc4o3)cc2)cc1.Cl.Cl [Compound 69, 2-(4-(3-(4-(N-Isopropylcarbamimidoyl)phenoxy)propoxy)phenyl)-N-isopropylbenzofuran-6-carboxamidine dihydrochloride] | 49900 | 3180 ± 190 | 3180 ± 190 | 28400 | – | – | 36.6 | – | – | – | 9900 ± 1700 | 88.1 | 0.54 µg/mL and 0.92 µM | 266 to 270 | –
9 | Cl.Cl.c1cc(C2=NCCN2)ccc1OCCCOc1ccc(-c2cc3ccc(C4=NCCN4)cc3o2)cc1 [Compound 70, 2-(2-(4-(3-(4-(4,5-Dihydro-1H-imidazol-2-yl)phenoxy)propoxy)phenyl)benzofuran-6-yl)-4,5-dihydro-1H-imidazole dihydrochloride] | 16800 | 480 ± 160 | 480 ± 160 | 7110 | – | – | 41.8 | – | – | – | 2400 ± 100 | 144 | 0.86 µg/mL and 1.5 µM | 283 to 284 | selectivity for axenic amastigotes over J774 macrophages (fold more active against the parasites compared to the mammalian host cells) [1]: 5 fold
10 | Cl.Cl.N=C(N)c1ccc(OCCCCOc2ccc(-c3cc4ccc(C(=N)N)cc4o3)cc2)cc1 [Compound 71, 2-(4-(4-(4-Carbamimidoylphenoxy)butoxy)phenyl)benzofuran-6-carboxamidine dihydrochloride] | 14100 | 3220 ± 960 | 3220 ± 960 | 12500 | – | – | 166 | – | – | – | 860 ± 200 | 1060 | 0.45 µg/mL and 0.85 µM | 324 to 325 | –
11 | CC(C)NC(=N)c1ccc(OCCCCCOc2ccc(-c3cc4ccc(C(=N)NC(C)C)cc4o3)cc2)cc1.Cl.Cl [Compound 75, 2-(4-(5-(4-(N-Isopropylcarbamimidoyl)phenoxy)pentyloxy)phenyl)-N-isopropylbenzofuran-6-carboxamidine dihydrochloride] | 10700 | 1380 ± 180 | 1380 ± 180 | 8920 | – | – | 74.4 | – | – | – | 2700 ± 100 | 557 | 1.19 µg/mL and 1.92 µM | 255 to 257 | –
12 | CC(C)NC(=N)c1ccc(OCCCCCCOc2ccc(-c3cc4ccc(C(=N)NC(C)C)cc4o3)cc2)cc1.Cl.Cl [Compound 78, 2-(4-(6-(4-(N-Isopropylcarbamimidoyl)phenoxy)hexyloxy)phenyl)-N-isopropylbenzofuran-6-carboxamidine dihydrochloride] | 4900 | 2620 ± 350 | 2620 ± 350 | 3480 | – | – | 51.9 | – | – | – | 730 ± 30 | 884 | 2.11 µg/mL and 3.33 µM | 264 to 268 | –
13 | N=C(N)c1ccc(OCCCCCOc2ccc(C(=N)N)cc2)cc1 [Pentamidine, pentamidine, reference compound] | – | – | 2000 ± 600 | – | – | – | – | – | – | – | 23000 ± 6000 | – | – | – | –

— patent publication US20080114047A1 (priority 2003, published 2008)
